Source: patent US8338475B2, “Anti-proliferative pharmaceutical composition” (BioCis Pharma Oy, priority 2003, dated 2012)
Values joined by “and” are separate entries in the source; they are usually repeats but may differ in a detail not shown here. Identical values can stand only once.

Legend:
A2058 cells = experiment: Monitoring of intracellular pH (BCECF, flow cytometry), A2058 cells; format: cell-based, human
Description: The cells were labelled with BCECF and placed in pH-adjusted buffer solutions with or without various concentrations of cis-UCA. Left panels, calibration of BCECF fluorescence intensity of nigericin-treated cells in high-potassium buffer as a function of buffer pH. Right panels, intracellular pH values in buffers with or without various concentrations of cis-UCA. All test buffers were adjusted to pH 7.4 (%) or pH 6.5 (+) after the addition of cis-UCA. Results were calculated using the corresponding calibration curve on the left.
Intracellular pH in the cell lines in the presence of cis-UCA was measured with the pH-sensitive fluorescent dye 2′,7′-bis-(2-carboxyethyl)-5-(and-6)-carboxyfluorescein (BCECF, acetoxymethyl ester; Molecular Probes, Leiden, The Netherlands) by flow cytometry. Two million cells were incubated in 5 ml DMEM medium (Invitrogen), pH 7.4, containing 0.35 μM BCECF at 37° C. for 30 min, washed once in sodium phosphate buffer (50 mM NaH2PO4/Na2HPO4, 43 mM NaCl), pH 7.4, and resuspended in 0.3 ml saline. Twenty μl of the cell suspension was pipetted into flow cytometry tubes. […]
Calibration of intracellular pH in situ was performed using the K^+/H^+ ionophore nigericin (Molecular Probes) in high-potassium buffers. […] Exact intracellular pH values were calculated from mean BCECF fluorescence intensities by reference with nigericin-clamped calibration cells. […]

[1] = system: A2058 (cutaneous melanoma); experiment: Proliferation assay (CellTiter 96), A2058 cells; format: cell-based, human
Description: The cells were cultured in triplicate with or without 2 μM camptothecin (CPT) or 10 mM cis-UCA in a density of 15,000 cells per […]. A, Cells taken from normal pH 7.4 cultures to test conditions at pH 6.5. B, Cells cultured in low pH 6.7 adaptation medium for 3 d, then tested at pH 6.5. C, Cells cultured and tested at pH 7.4.
Proliferation was measured in a 44-h assay at pH 6.5 with 30 μM to 30 mM cis-UCA and 2 μM camptothecin. Both proliferation (A) and calculated percentage inhibition data (B) are presented.
(§1) Transformed tumour cell lines WM 266-4 and A2058 (cutaneous melanoma), HT-1080 (epithelial fibrosarcoma), HeLa (epithelial adenocarcinoma of cervix), HK293 (kidney epithelial cells) and non-transformed cell line HSF (skin fibroblast from a healthy volunteer donor) of human origin have been described earlier (Li et al. 2003). The K562 (chronic myelogenous leukemia) cells were purchased from American Type Culture Collection.
(§2) The cells were maintained in logarithmic growth phase in IMDM medium (Invitrogen, Paisley, UK) supplemented with 10% fetal calf serum and antibiotics in a humidified incubator at +37° C., 5% CO2. The adherent cells lines were harvested for experiments with 0.25% trypsin-EDTA in PBS for 5 min and then resuspended and washed in medium. After counting of viable cells, 15,000 to 75,000 cells were transferred into flat-bottom 96-well cell culture plates in a volume of 100 or 150 μl.
(§3) The proliferation activity of cultured cell lines was quantified in flat-bottom 96-well plates with a modified colorimetric assay based on a tetrazolium derivative (CellTiter 96 Aqueous One Solution Cell Proliferation Assay, Promega). The cells were cultured in the presence of camptothecin and/or cis-UCA for 20 to 92 h, then the proliferation reagent was added for 2 h, and the absorbance at 490 nm was measured in a plate reader. Blank absorption values in wells containing medium without cells were subtracted before comparison analysis.
The cell lines were tested in a 44-h culture at pH 6.5 with or without 2 μM camptothecin and 10 mM cis-UCA at 15,000 cells per 100 μl total volume. […] In order to further characterise the effective anti-proliferative concentration range of cis-UCA, proliferation was measured in a 44-h assay at pH 6.5 with cis-UCA concentration ranging from 30 μM to 30 mM.

[2] = system: HT-1080 (epithelial fibrosarcoma); experiment: Proliferation assay (CellTiter 96), HT-1080 cells; format: cell-based, human; settings: pH 6.5, 44 h, cis-UCA 10 mM, CPT 2 μM, 15,000 cells per 100 μl
Text: as §1, §2
as §3, with “Blank absorption values in wells containing medium without cells were subtracted before comparison analysis.” left out

[3] = system: Ki67 (proliferating cells) in A2058 tumours; experiment: Immunohistochemistry of tumours, Ki67 staining; format: in vivo, SCID/SCID mice; settings: tumours collected after 16 days; 30 mM cis-UCA, 1 μM CPT intratumoural
Text: (§4) After 16 days from the first injection, all the animals were sacrificed with CO2, and the tumours were collected and fixed in formalin for further studies. In groups A, C, and D, one mouse was sacrificed before the end of the experiment because of poor development of the tumour (no measurable tumour at day 0). One animal in group B was sacrificed prematurely after it had severly scratched the tumour. Data from these animals were not included in the calculation of the tumour size results. All the removed animals were female mice. Immunohistochemical data was obtained also from the removed mice except from group B. The experiments were conducted under a protocol approved by the local ethics committee.
(§5) Paraffin sections of the tumours were stained with haematoxylin/eosin following standard procedures for an overall picture. Ki67 was stained to detect the amount of proliferating cells. The staining procedure for the Ki67 primary antibody (Dako, Klostrup, Denmark) at 1:50 dilution and secondary antibody (StreptABComplex/HRP Duet Mouse/Rabbit, Dako) at 1:100 dilution followed the instructions provided by the manufacturer. Two sections from each tumour was examined.

[4] = system: HeLa (epithelial adenocarcinoma of cervix); experiment: Proliferation assay (CellTiter 96), HeLa cells; format: cell-based, human; settings: pH 6.5, 44 h, cis-UCA 10 mM, CPT 2 μM, 15,000 cells per 100 μl
Text: as §1, §2
as §3, with “Blank absorption values in wells containing medium without cells were subtracted before comparison analysis.” left out

[5] = system: K562 (chronic myelogenous leukemia); experiment: Proliferation assay (CellTiter 96), K562 cells; format: cell-based, human; settings: pH 6.5, 44 h, cis-UCA 10 mM, CPT 2 μM, 15,000 cells per 100 μl
Text: as §1, §2
as §3, with “Blank absorption values in wells containing medium without cells were subtracted before comparison analysis.” left out

A2058 tumours = experiment: Haematoxylin/eosin staining of tumour sections (necrosis); format: in vivo, SCID/SCID mice; settings: tumours collected after 16 days; 30 mM cis-UCA, 1 μM CPT intratumoural
Text: as §4, §5

[6] = system: HK293 (kidney epithelial cells); experiment: Proliferation assay (CellTiter 96), HK293 cells; format: cell-based, human; settings: pH 6.5, 44 h, cis-UCA 10 mM, CPT 2 μM, 15,000 cells per 100 μl
Text: as §1, §2
as §3, with “Blank absorption values in wells containing medium without cells were subtracted before comparison analysis.” left out

[7] = cited from earlier work

In the case of `O=C(O)/C=C\c1c[nH]cn1` [cis-UCA, cis-urocanic acid], the “decrease of intracellular pH” value (A2058 cells; extracellular pH 6.5, highest cis-UCA concentration (30 mM)) was “about 0.25 pH units”, the “intracellular pH with escalating concentrations” value (A2058 cells; extracellular pH 7.4, cis-UCA up to 30 mM) was “remained almost constant” and the “percentage inhibition of proliferation” value ([1]; 10 mM cis-UCA alone, cells from pH 7.4 cultures tested at pH 6.5, 92 h (FIG. 2A)) was 83%. For the same compound, the “percentage inhibition of proliferation” value ([1]; 10 mM cis-UCA, cells adapted to pH 6.7 for 3 days, tested at pH 6.5, 92 h (FIG. 2B)) was 87%, the “concentration required to produce measurable inhibition of proliferation” value ([1]; 44-h assay at pH 6.5, 30 μM to 30 mM tested (FIG. 3)) was “at least 3 mM” and the “Inhibition of proliferation (mean percentage inhibition ± SD compared with untreated control)” value ([1]; pH 6.5, 44 h, cis-UCA 10 mM, CPT 2 μM, 15,000 cells per 100 μl) was 45 ± 4.4%. The “Inhibition of proliferation (mean percentage inhibition ± SD compared with untreated control)” value [2] was 47 ± 0.5%, the “Ki67+ (number of positive tumours/total analysed)” value [3] was “none of the analysed five tumours and 0/5” and the “Inhibition of proliferation (mean percentage inhibition ± SD compared with untreated control)” value [4] was 50 ± 1.7%. For the same compound, the “Inhibition of proliferation (mean percentage inhibition ± SD compared with untreated control)” value [5] was 26 ± 2.9%, the “Necrosis (histological sections with haematoxylin/eosin staining)” value (A2058 tumours) was “Dead cells and large necrotic areas were detected and yes” and the “Inhibition of proliferation (mean percentage inhibition ± SD compared with untreated control)” value [6] was 22 ± 0.1%. The “second pKa (imidazolyl group)” value ([7]; Roberts et al. 1982, Krien & Kermici 2000) was 7.0 and the “first pKa (carboxyl group)” value ([7]; Roberts et al. 1982) was 3.3.
